In the NIST ThermoML archive (doi:10.1016/j.jct.2013.08.021):
± gives the expanded uncertainty stated by the source.

How the values were obtained:
[1] = refractive index (Na D-line) (dimensionless); xn = mol fraction of the nth substance listed; conditions: 101 kPa, Liquid, Standard Abbe refractometry
[2] = xn = mol fraction of the nth substance listed; conditions: 101 kPa, Liquid; for speed of sound: Sing-around technique in a fixed-path interferometer; for mass density: Vibrating tube method

CCC[N+]1(C)CCCC1.O=S(=O)([N-]S(=O)(=O)C(F)(F)F)C(F)(F)F + CCO
Conditions	mass density, 298.15 K [kg/m3]	mass density, 303.15 K [kg/m3]	mass density, 308.15 K [kg/m3]	refractive index, 298.15 K	refractive index, 303.15 K	refractive index, 308.15 K	speed of sound, 298.15 K [m/s]	speed of sound, 303.15 K [m/s]	speed of sound, 308.15 K [m/s]
[1], x2 = 0	–	–	–	1.42064 ± 0.00037	1.41926 ± 0.00037	1.41782 ± 0.00037	–	–	–
[1], x2 = 0.016	–	–	–	1.42045 ± 0.00037	1.41907 ± 0.00037	1.41766 ± 0.00037	–	–	–
[1], x2 = 0.0703	–	–	–	1.41973 ± 0.00036	1.41834 ± 0.00036	1.4169 ± 0.00036	–	–	–
[1], x2 = 0.0986	–	–	–	1.41935 ± 0.00036	1.41789 ± 0.00036	1.41649 ± 0.00036	–	–	–
[1], x2 = 0.2816	–	–	–	1.41621 ± 0.00034	1.41485 ± 0.00034	1.41339 ± 0.00034	–	–	–
[1], x2 = 0.4082	–	–	–	1.41338 ± 0.00033	1.412 ± 0.00033	1.41052 ± 0.00033	–	–	–
[1], x2 = 0.5143	–	–	–	1.41021 ± 0.00033	1.40877 ± 0.00033	1.40732 ± 0.00033	–	–	–
[1], x2 = 0.6077	–	–	–	1.40661 ± 0.00032	1.40521 ± 0.00032	1.40398 ± 0.00032	–	–	–
[1], x2 = 0.7059	–	–	–	1.40144 ± 0.00032	1.39995 ± 0.00032	1.39878 ± 0.00032	–	–	–
[1], x2 = 0.8034	–	–	–	1.39395 ± 0.00032	1.39236 ± 0.00032	1.39104 ± 0.00032	–	–	–
[1], x2 = 0.9002	–	–	–	1.38228 ± 0.00031	1.38064 ± 0.00031	1.37888 ± 0.00031	–	–	–
[1], x2 = 0.9468	–	–	–	1.37383 ± 0.00031	1.372 ± 0.00031	1.37027 ± 0.00032	–	–	–
[2], x2 = 0	1427.86 ± 0.6	1423.26 ± 0.6	1418.83 ± 0.59	–	–	–	1270.6 ± 1.5	1259.5 ± 1.5	1248.6 ± 1.5
[2], x2 = 0.016	1425.68 ± 0.59	1421.16 ± 0.58	1416.65 ± 0.58	–	–	–	1269.2 ± 1.5	1258.2 ± 1.5	1247.2 ± 1.5
[2], x2 = 0.0703	1418.06 ± 0.54	1413.56 ± 0.54	1409.05 ± 0.54	–	–	–	1266.3 ± 1.5	1255.2 ± 1.5	1244.3 ± 1.5
[2], x2 = 0.0986	1413.89 ± 0.52	1409.36 ± 0.52	1404.83 ± 0.51	–	–	–	1264.6 ± 1.5	1253 ± 1.5	1242.6 ± 1.5
[2], x2 = 0.2816	1380.66 ± 0.39	1376.07 ± 0.39	1371.48 ± 0.39	–	–	–	1252.4 ± 1.4	1241.1 ± 1.4	1229.9 ± 1.4
[2], x2 = 0.4082	1349.44 ± 0.32	1344.8 ± 0.31	1340.16 ± 0.31	–	–	–	1241 ± 1.3	1229.5 ± 1.3	1218.2 ± 1.3
[2], x2 = 0.5143	1315.09 ± 0.26	1310.32 ± 0.26	1305.65 ± 0.26	–	–	–	1228.8 ± 1.3	1217.2 ± 1.3	1205.7 ± 1.3
[2], x2 = 0.6077	1275.55 ± 0.23	1270.84 ± 0.23	1266.14 ± 0.23	–	–	–	1215.8 ± 1.2	1203.9 ± 1.2	1192.1 ± 1.2
[2], x2 = 0.7059	1219.23 ± 0.22	1214.5 ± 0.22	1209.77 ± 0.23	–	–	–	1198.4 ± 1.2	1186.2 ± 1.2	1174 ± 1.2
[2], x2 = 0.8034	1138.92 ± 0.25	1134.21 ± 0.25	1129.48 ± 0.26	–	–	–	1177.6 ± 1.2	1164.7 ± 1.2	1151.9 ± 1.2
[2], x2 = 0.9002	1015 ± 0.31	1010.37 ± 0.3	1005.72 ± 0.32	–	–	–	1155 ± 1.2	1140.9 ± 1.2	1127 ± 1.2
[2], x2 = 0.9468	927.02 ± 0.48	922.49 ± 0.48	917.93 ± 0.48	–	–	–	1146.8 ± 1.2	1131.8 ± 1.1	1117 ± 1.1

CCC[N+]1(C)CCCC1.O=S(=O)([N-]S(=O)(=O)C(F)(F)F)C(F)(F)F + CO
Conditions	mass density, 298.15 K [kg/m3]	mass density, 303.15 K [kg/m3]	mass density, 308.15 K [kg/m3]	refractive index, 298.15 K	refractive index, 303.15 K	refractive index, 308.15 K	speed of sound, 298.15 K [m/s]	speed of sound, 303.15 K [m/s]	speed of sound, 308.15 K [m/s]
[1], x2 = 0	–	–	–	1.42064 ± 0.00037	1.41926 ± 0.00037	1.41782 ± 0.00037	–	–	–
[1], x2 = 0.0462	–	–	–	1.42002 ± 0.00036	1.41862 ± 0.00036	1.41719 ± 0.00036	–	–	–
[1], x2 = 0.0901	–	–	–	1.41937 ± 0.00036	1.41801 ± 0.00036	1.41659 ± 0.00036	–	–	–
[1], x2 = 0.1769	–	–	–	1.41794 ± 0.00035	1.41675 ± 0.00035	1.41551 ± 0.00035	–	–	–
[1], x2 = 0.2722	–	–	–	1.41609 ± 0.00034	1.41503 ± 0.00034	1.4136 ± 0.00034	–	–	–
[1], x2 = 0.3855	–	–	–	1.41327 ± 0.00034	1.41206 ± 0.00034	1.41063 ± 0.00034	–	–	–
[1], x2 = 0.568	–	–	–	1.40659 ± 0.00033	1.4055 ± 0.00033	1.404 ± 0.00033	–	–	–
[1], x2 = 0.685	–	–	–	1.39953 ± 0.00032	1.39832 ± 0.00032	1.39695 ± 0.00032	–	–	–
[1], x2 = 0.798	–	–	–	1.38838 ± 0.00032	1.38703 ± 0.00032	1.38569 ± 0.00032	–	–	–
[1], x2 = 0.8984	–	–	–	1.37031 ± 0.00032	1.36877 ± 0.00032	1.36712 ± 0.00032	–	–	–
[1], x2 = 0.9467	–	–	–	1.35498 ± 0.00032	1.35335 ± 0.00032	1.35185 ± 0.00032	–	–	–
[2], x2 = 0	1427.86 ± 0.6	1423.26 ± 0.6	1418.83 ± 0.59	–	–	–	1270.6 ± 1.5	1259.5 ± 1.5	1248.6 ± 1.5
[2], x2 = 0.0462	1423.37 ± 0.56	1418.86 ± 0.56	1414.35 ± 0.56	–	–	–	1268.8 ± 1.5	1257.7 ± 1.5	1246.8 ± 1.5
[2], x2 = 0.0901	1418.77 ± 0.53	1414.23 ± 0.53	1409.69 ± 0.52	–	–	–	1266.9 ± 1.5	1255.8 ± 1.5	1244.9 ± 1.5
[2], x2 = 0.1769	1408.88 ± 0.47	1404.34 ± 0.46	1399.8 ± 0.46	–	–	–	1262.7 ± 1.4	1251.6 ± 1.4	1240.6 ± 1.4
[2], x2 = 0.2722	1396.02 ± 0.41	1391.43 ± 0.4	1386.85 ± 0.4	–	–	–	1257.1 ± 1.4	1246 ± 1.4	1234.9 ± 1.4
[2], x2 = 0.3855	1376.42 ± 0.34	1371.67 ± 0.34	1367.04 ± 0.34	–	–	–	1248.7 ± 1.3	1237.4 ± 1.3	1226.2 ± 1.3
[2], x2 = 0.568	1329.02 ± 0.25	1324.31 ± 0.25	1319.61 ± 0.25	–	–	–	1228.6 ± 1.3	1217 ± 1.3	1205.7 ± 1.3
[2], x2 = 0.685	1279.72 ± 0.23	1274.95 ± 0.23	1270.18 ± 0.23	–	–	–	1208.5 ± 1.2	1196.8 ± 1.2	1185.2 ± 1.2
[2], x2 = 0.798	1201.72 ± 0.25	1196.89 ± 0.25	1192.05 ± 0.26	–	–	–	1180.4 ± 1.2	1168.2 ± 1.2	1156.1 ± 1.2
[2], x2 = 0.8984	1075.97 ± 0.33	1071.1 ± 0.32	1066.22 ± 0.33	–	–	–	1144.6 ± 1.2	1131.4 ± 1.2	1118.3 ± 1.2
[2], x2 = 0.9467	973.15 ± 0.59	968.3 ± 0.58	963.44 ± 0.59	–	–	–	1124.5 ± 1.2	1110.3 ± 1.1	1096.2 ± 1.1
